# Experimental data from patent publication US20200015481A1, “SYNERGISTIC WEED CONTROL FROM APPLICATIONS OF PYRIDINE CARBOXYLIC ACID HERBICIDES AND PHOTOSYSTEM II INHIBITORS” (Dow AgroSciences, LLC, priority 2014, published 2020).
# How the values were obtained:
# [1] = test system: barnyardgrass (Echinochloa crus-galli, ECHCG); assay: Postemergence herbicidal activity, greenhouse (Example 3); type: in vivo
# Text: (§1) Compound 1 was formulated as an EC and combined with bentazon, isoproturon, metribuzin and atrazine.
# [2] = test system: common sunflower (Helianthus annuus, HELAN); assay: as above; type: in vivo
# Text: as §1
# [3] = test system: ivy-leaved speedwell (VERHE, Veronica hederifolia); assay: as above; type: in vivo
# Text: as §1
# [4] = test system: large crabgrass (Digitaria sanguinalis, DIGSA); assay: as above; type: in vivo
# Text: as §1
# [5] = test system: nutsedge (Cyperus esculentus, CYPES); assay: as above; type: in vivo
# Text: as §1
# [6] = test system: pigweed (Amaranthus retroflexus, AMARE); assay: as above; type: in vivo
# Text: as §1
# [7] = test system: poinsettia (Euphorbia heterophylla, EPHHL); assay: as above; type: in vivo
# Text: as §1
# [8] = test system: rape (Brassica napus, BRSNN); assay: as above; type: in vivo
# Text: as §1
# [9] = test system: thistle (Cirsium arvense, CIRAR); assay: as above; type: in vivo
# Text: as §1
# [10] = test system: velvetleaf (Abutilon theophrasti, ABUTH); assay: as above; type: in vivo
# Text: as §1
# [11] = test system: wild pansy (VIOTR, Viola tricolor); assay: as above; type: in vivo
# Text: as §1
# [12] = test system: rice (ORYSA); assay: Postemergence crop phytotoxicity, greenhouse (Example 3); type: in vivo, Oryza sativa
# Text: as §1
# [13] = test system: winter wheat (TRZAW); assay: as above; type: in vivo, Triticum aestivum; details: 20-22 d
# Text: as §1
# [14] = test system: corn (ZEAMX); assay: as above; type: in vivo, Zea mays; details: 20-22 d
# Text: as §1
# [15] = test system: ivyleaf morningglory (Ipomoea hederacea, IPOHE); assay: Postemergence herbicidal activity, greenhouse (Example 2); type: in vivo; details: 20-22 d
# Method: (§2) Stocks solutions of the compound mixtures were prepared following the same procedure.
# [16] = test system: nutsedge (Cyperus esculentus, CYPES); assay: as above; type: in vivo; details: 20-22 d
# Method: as §2
# [17] = test system: pigweed (AMARE, Amaranthus retroflexus); assay: as above; type: in vivo; details: 20-22 d
# Method: as §2
# [18] = test system: poinsettia (Euphorbia heterophylla, EPHHL); assay: as above; type: in vivo; details: 20-22 d
# Method: as §2
# [19] = test system: maize (ZEAMX); assay: Postemergence crop phytotoxicity, greenhouse (Example 2)
# Method: as §2
# [20] = test system: winter wheat (TRZAW); assay: as above
# Method: as §2
# [21] = test system: winter wheat (TRZAW); assay: Postemergence crop phytotoxicity, greenhouse (Example 1); details: 20-22 d
# [22] = test system: spring barley (HORVS); assay: as above; details: Bromoxynil 70 g ai/ha, 20-22 d
# [23] = test system: pigweed (AMARE, Amaranthus retroflexus); assay: Postemergence herbicidal activity, greenhouse (Example 1); details: 20-22 d
# [24] = test system: thistle (CIRAR, Cirsium arvense); assay: as above; details: 20-22 d
# [25] = Compound 1 5 g ae/ha, 20-22 d (Tables 4-6)
# [26] = Compound 1 5 g ae/ha, 20-22 d (Table 7)
# [27] = Isoproturon 150 g ai/ha, 20-22 d
compound,measurement,setting,value
Nc1c(F)c(-c2ccc3cc[nH]c3c2F)nc(C(=O)O)c1Cl [Compound 1],Effect (% visual injury) Obs,[1]; [25],60%
same,Effect (% visual injury) Obs,[2]; [25],97%
same,Effect (% visual injury) Obs,[3]; [26],40%
same,Effect (% visual injury) Obs,[4]; [25],0%
same,Effect (% visual injury) Obs,[5]; [25],10%
same,Effect (% visual injury) Obs,[6]; [26],65%
same,Effect (% visual injury) Obs,[6]; [25],93%
same,Effect (% visual injury) Obs,[7]; [26],97%
same,Effect (% visual injury) Obs,[7]; [25],97%
same,Effect (% visual injury) Obs,[8]; [25],50%
same,Effect (% visual injury) Obs,[9]; [25],20%
same,Effect (% visual injury) Obs,[10]; [25],10%
same,Effect (% visual injury) Obs,[11]; [26],5%
same,Effect (% visual injury) Obs,[11]; [25],10%
same,Effect (% visual injury) Obs,"[12]; Oryza sativa (rice), in vivo",0%
CSc1nnc(C(C)(C)C)c(=O)n1N [Metribuzin],Effect (% visual injury) Obs,"[1]; Metribuzin 25 g ai/ha, 20-22 d",0%
same,Effect (% visual injury) Obs,"[5]; Metribuzin 25 g ai/ha, 20-22 d",0%
same,Effect (% visual injury) Obs,"[6]; Metribuzin 25 g ai/ha, 20-22 d",10%
same,Effect (% visual injury) Obs,"[7]; Metribuzin 25 g ai/ha, 20-22 d",0%
same,Effect (% visual injury) Obs,"[8]; Metribuzin 25 g ai/ha, 20-22 d",0%
same,Effect (% visual injury) Obs,"[9]; Metribuzin 25 g ai/ha, 20-22 d",10%
same,Effect (% visual injury) Obs,[13]; Metribuzin 25 g ai/ha,0%
same,Effect (% visual injury) Obs,[14]; Metribuzin 25 g ai/ha,0%
same,Effect (% visual injury) Obs,"[12]; ORYSA, Metribuzin 25 g ai/ha, postemergence, 20-22 d",0%
N#Cc1cc(Br)c(O)c(Br)c1 [Bromoxynil],Effect (% visual injury) Obs,[15]; Bromoxynil 70 g ai/ha,25%
same,Effect (% visual injury) Obs,[16]; Bromoxynil 70 g ai/ha,0%
same,Effect (% visual injury) Obs,[17]; Bromoxynil 70 g ai/ha,20%
same,Effect (% visual injury) Obs,[18]; Bromoxynil 70 g ai/ha,5%
same,Effect (% visual injury) Obs,"[19]; ZEAMX, Bromoxynil 70 g ai/ha, postemergence, 20-22 d",0%
same,Effect (% visual injury) Obs,"[20]; TRZAW, Bromoxynil 70 g ai/ha, postemergence, 20-22 d",0%
same,Effect (% visual injury) Obs,[21]; Bromoxynil 70 g ai/ha,0%
same,Effect (% visual injury) Obs,[21]; Bromoxynil 140 g ai/ha,0%
same,Effect (% visual injury) Obs,[22],0%
same,Effect (% visual injury) Obs,[23]; Bromoxynil 140 g ai/ha,0%
same,Effect (% visual injury) Obs,[24]; Bromoxynil 70 g ai/ha,40%
CC(C)c1ccc(NC(=O)N(C)C)cc1 [Isoproturon],Effect (% visual injury) Obs,[1]; [27],0%
same,Effect (% visual injury) Obs,[2]; [27],0%
same,Effect (% visual injury) Obs,[5]; [27],0%
same,Effect (% visual injury) Obs,[8]; [27],0%
same,Effect (% visual injury) Obs,[9]; [27],10%
same,Effect (% visual injury) Obs,[11]; [27],0%
CC(C)N1C(=O)c2ccccc2NS1(=O)=O [Bentazon],Effect (% visual injury) Obs,"[1]; Bentazon 60 g ai/ha, 20-22 d",0%
same,Effect (% visual injury) Obs,"[4]; Bentazon 60 g ai/ha, 20-22 d",0%
same,Effect (% visual injury) Obs,"[5]; Bentazon 60 g ai/ha, 20-22 d",0%
same,Effect (% visual injury) Obs,"[6]; Bentazon 60 g ai/ha, 20-22 d",10%
same,Effect (% visual injury) Obs,"[7]; Bentazon 60 g ai/ha, 20-22 d",0%
same,Effect (% visual injury) Obs,"[8]; Bentazon 60 g ai/ha, 20-22 d",20%
same,Effect (% visual injury) Obs,"[9]; Bentazon 60 g ai/ha, 20-22 d",0%
same,Effect (% visual injury) Obs,"[10]; Bentazon 60 g ai/ha, 20-22 d",0%
same,Effect (% visual injury) Obs,[13]; Bentazon 60 g ai/ha,0%
same,Effect (% visual injury) Obs,[14]; Bentazon 60 g ai/ha,0%
CCNc1nc(Cl)nc(NC(C)C)n1 [Atrazine],Effect (% visual injury) Obs,"[3]; Atrazine 450 g ai/ha, 20-22 d",45%
same,Effect (% visual injury) Obs,"[6]; Atrazine 450 g ai/ha, 20-22 d",50%
same,Effect (% visual injury) Obs,"[7]; Atrazine 450 g ai/ha, 20-22 d",0%
same,Effect (% visual injury) Obs,"[11]; Atrazine 450 g ai/ha, 20-22 d",5%
Nc1c(F)c(-c2ccc3cc[nH]c3c2F)nc(C(=O)OCc2ccccc2)c1Cl [Compound 2],Effect (% visual injury) Obs,[15]; Compound 2 5 g ae/ha,10%
same,Effect (% visual injury) Obs,[15]; Compound 2 10 g ae/ha,20%
same,Effect (% visual injury) Obs,[16]; Compound 2 5 g ae/ha,5%
same,Effect (% visual injury) Obs,[16]; Compound 2 10 g ae/ha,10%
same,Effect (% visual injury) Obs,[17]; Compound 2 5 g ae/ha,88%
same,Effect (% visual injury) Obs,[17]; Compound 2 10 g ae/ha,100%
same,Effect (% visual injury) Obs,[18]; Compound 2 5 g ae/ha,35%
same,Effect (% visual injury) Obs,[18]; Compound 2 10 g ae/ha,75%
same,Effect (% visual injury) Obs,"[19]; Zea mays (maize), in vivo",3%
same,Effect (% visual injury) Obs,"[20]; Triticum aestivum (winter wheat), in vivo",3%
Nc1c(F)c(-c2ccc3cc[nH]c3c2F)nc(C(=O)[O-])c1Cl.[K+] [Compound 7],Effect (% visual injury) Obs,[23]; Compound 7 8.75 g ae/ha,70%
same,Effect (% visual injury) Obs,[24]; Compound 7 5 g ae/ha,50%
same,Effect (% visual injury) Obs,[24]; Compound 7 10 g ae/ha,65%
